Measured values from PubChem BioAssay AID489033 (Sanford-Burnham Center for Chemical Genomics, 2010).
Activity calls are given as the source filed them. How the calls were made is not given here.

System: 697B B-cell line, NF-kB luciferase reporter luminescence
Experiment: inhibitors of B-cell NF-kB luciferase signal – 697B cells, luminescence, selectivity assay for T-cell antigen receptor NF-kB inhibitors, dose response (AID 489033)

| SMILES | IC50 |
| --- | --- |
| CCOC(=O)c1[nH]c(C=O)c(C(=O)OCC)c1C | 59.5 µM (inactive) |
| O=C(Nc1ccncc1)c1ccc(Cl)c(S(=O)(=O)N2CCc3ccccc32)c1 | 61.9 µM (inactive) |
| O=S(=O)(Nc1cccc2ncccc12)c1cccs1 | 0.34 µM |
| Cc1noc(C)c1COc1ccc(CC(=O)NCc2ccccc2)cc1 | > 80 µM (inactive) |
| Cc1ccc(S(=O)(=O)Nc2cccc(-c3ccc4nncn4n3)c2)cc1 | > 80 µM (inactive) |
| Cc1cc(/C=C2\Sc3ccccc3N2C)cc(C)[n+]1CC1CCCO1 (configuration not stated) | > 80 µM (inactive) |
| C=CC[C@@H](CC/C=C/C=C/CC/C=C\[C@@H]1CSC([C@@H]2C[C@@H]2C)=N1)OC | 15.3 µM |
| O=C(COc1ccc2c(-c3ccccc3)cc(=O)oc2c1)Nc1cccnc1 | > 80 µM (inactive) |
| CCOC(=O)c1[nH]c(C)c(C(=O)c2cc(F)ccc2F)c1C | > 80 µM (inactive) |
| COc1ccc2c(c1)C(=O)N1[C@H]3c4cc(Br)ccc4OC[C@@H]3[C@H](c3ccccc3)[C@]1(C)C(=O)N2 | > 80 µM (inactive) |
| Cc1ccc(O)c(NC(=O)c2cc(-c3ccccc3)on2)c1 | > 80 µM (inactive) |
| Cc1ccc(-c2cc(-c3ccc(C)cc3)[n+](-c3ccccc3)c(-c3ccc(C)cc3)c2)cc1 | 0.7 µM |
| COc1ccc(-n2nnnc2-c2ccccc2)cc1 | > 80 µM (inactive) |
| CCCCCCCCCCCCCCCC[n+]1cccc(C(=O)N(CC)CC)c1 | 3.3 µM |
| COc1ccc(C(=O)N2CCN(c3ccc([N+](=O)[O-])c(NCCc4ccc(OC)c(OC)c4)c3)CC2)cc1 | > 80 µM (inactive) |
| COc1cccc(-c2cc(=O)c3cc(NC(=O)c4ccccc4)ccc3[nH]2)c1 | > 80 µM (inactive) |
| C=C(C)C(=O)O[C@H]1C/C(C)=C\C(=O)/C=C(\C)[C@H](O)[C@@H]2OC(=O)C(=C)[C@@H]21 | 1.06 µM |
| COc1cccc(CN(C)C(=O)c2ccc(OCC(=O)Nc3cccc(C(F)(F)F)c3)c(OC)c2)c1 | 65.7 µM (inactive) |
| O=S1(=O)C=C(Sc2nc3ccccc3s2)c2ccccc21 | 0.32 µM |
| COc1cccc(N/C(N)=N/c2nc(CSc3ccccn3)cc(=O)[nH]2)c1 | > 80 µM (inactive) |
| Clc1cccc(Cl)c1OCCOCCNCc1ccccc1 | > 80 µM (inactive) |
| Cc1ccc(N2C(=O)c3cccc4c(N)ccc(c34)C2=O)c2cccnc12 | > 80 µM (inactive) |
| COc1ccc(OC)c(-c2nnc3n2N=C(c2ccc(OC)c(OC)c2)CS3)c1 | 55.2 µM (inactive) |
| CCCC(=O)NC(c1ccc(C(C)C)cc1)c1ccc2cccnc2c1O (configuration not stated) | > 80 µM (inactive) |

| SMILES | IC50 |
| --- | --- |
| CCOC(=O)c1[nH]c(C)c(C(=O)Nc2cc(OC)ccc2OC)c1C | > 80 µM (inactive) |
| CCOC(=O)N/N=C/c1c(C)nn(-c2cccc(C(F)(F)F)c2)c1Cl | > 80 µM (inactive) |
| COc1ccc(S(=O)(=O)/N=C2\C=C(Nc3ccc(O)cc3)C(=O)c3ccccc32)cc1 | 2.18 µM |
| CCCCc1ccc(NC(=O)C(=O)NCCN2CCN(Cc3ccc([N+](=O)[O-])cc3)CC2)cc1 | > 80 µM (inactive) |
| Cc1ccc2c(c1)C=CC(C#N)N2C(=O)c1ccccc1 (configuration not stated) | > 80 µM (inactive) |
| COC(=O)c1ccc2nc(Nc3nc4c(F)cc(F)cc4s3)sc2c1 | 24.6 µM (inactive) |
| COC(=O)c1ccc(Oc2cc(C)nc(SC)n2)cc1 | > 80 µM (inactive) |
| CCN(c1ccccc1)S(=O)(=O)c1ccc(C(=O)NC2CCN(Cc3ccccc3)CC2)cc1 | > 80 µM (inactive) |
| Cc1ccc(NC(=O)C2=C(c3ccccc3)S(=O)(=O)CCS2(=O)=O)cc1 | 0.39 µM |
| COc1ccccc1C(=O)N(CCC1CCCN1C)c1nc2ccccc2s1 (configuration not stated) | > 80 µM (inactive) |
| CCn1c2ccccc2c2cc(Nc3cc(C)nc4ncnn34)ccc21 | 47 µM (inactive) |
| O=[N+]([O-])c1ccc(-c2nc(C(Cl)Cl)c3ccccc3n2)cc1 | 1.6 µM |
| COc1cc(-c2c(-c3cc(OC)c(OC)c(OC)c3)noc2C)ccc1F | > 80 µM (inactive) |
| Cc1ccc(Nc2nc(-c3c(C)nc4ccccn34)cs2)cc1 | > 80 µM (inactive) |
| Cc1c(C)c2cccnc2c2ncccc12 | 6.81 µM |
| CCCCC(=O)NC(c1ccc(N(CC)CC)cc1)c1ccc2cccnc2c1O (configuration not stated) | > 80 µM (inactive) |
| COc1ccc(NC(=O)C(=O)NCC2CCCN2S(=O)(=O)c2cccs2)cc1 (configuration not stated) | > 80 µM (inactive) |
| O=C(Nc1ccc(N2CCN(C(=O)c3ccc(Cl)cc3)CC2)cc1)c1ccc2c(c1)OCCO2 | > 80 µM (inactive) |
| CCN1/C(=C/C(C)=C/c2sc3ccccc3[n+]2CC)Sc2ccccc21 | 2.42 µM |
| O=C(CSc1nnc(Cn2nnc3ccccc32)o1)N(Cc1ccc(F)cc1)c1ccccc1 | 12.7 µM |
| CCCCCn1c2c(c(=N)c3ccccc31)CCC2 | 50.3 µM (inactive) |
| Cc1ccc(N/C(N)=N/c2nc(CSc3nnc(C)s3)cc(=O)[nH]2)c(C)c1 | > 80 µM (inactive) |
| Cc1ccc(C(=O)Nc2cnc3ccccc3c2)cc1 | 7.31 µM |
| Cc1ccccc1NS(=O)(=O)c1ccc(N2CCCC2=O)cc1 | > 80 µM (inactive) |

| SMILES | IC50 |
| --- | --- |
| COc1cc(NS(C)(=O)=O)ccc1Nc1c2ccccc2nc2ccccc12 | 15.8 µM |
| O=S1(=O)C=C(Sc2nc3cc(Cl)ccc3o2)c2ccccc21 | 0.21 µM |
| COc1cccc(/C=N/Nc2ncnc3c2ncn3Cc2ccccc2)c1O | 23.4 µM (inactive) |
| O=C1C=CC(O)(c2cc(=O)c3c(O)cc(O)cc3o2)C=C1 | 1.62 µM |
| Cc1cc(=O)oc2cc(OCC3CC(c4ccccc4Cl)=NO3)ccc12 (configuration not stated) | > 80 µM (inactive) |
| COc1ccccc1NC(=O)C1=C(C)Nc2nc3ccccc3n2C1c1cccs1 (configuration not stated) | > 80 µM (inactive) |
| CCOc1ccccc1NC(=O)CN(c1ccc(OC)cc1)S(=O)(=O)c1c(C)noc1C | > 80 µM (inactive) |
| CCCC(=O)NC(c1ccc(OC)cc1)c1ccc2cccnc2c1O (configuration not stated) | > 80 µM (inactive) |
| Clc1ccc2c(c1)C(C1=NCCN1)c1ccccc1CS2 (configuration not stated) | > 80 µM (inactive) |
| COC(=O)c1cnc(Oc2ccc(NC(=O)NC(=O)c3c(F)cccc3Cl)cc2)cc1C(F)(F)F | > 80 µM (inactive) |
| COc1ccc([N+](=O)[O-])cc1Nc1c2ccccc2nc2ccccc12 | > 80 µM (inactive) |
| COc1cccc(N2CCN(C(=O)c3cn(Cc4ccccc4)nc3-c3cccnc3)CC2)c1 | > 80 µM (inactive) |
| O=C(c1ccccc1)c1nn(-c2ccc(Cl)cc2)c(=O)cc1C(F)(F)F | 6.53 µM |
| C=C1C(=O)O[C@H]2C[C@@H](C)[C@@H]3C=CC(=O)[C@@]3(C)C[C@H]12 | 1.25 µM |
| CCN1C=CC(=C2C(=O)c3ccccc3C2=O)C=C1 | 1.13 µM |
| Cc1nc(Nc2nc3c(c(=O)[nH]2)CCC3)nc2ccccc12 | 6.06 µM |
| CC[n+]1cc(C)ccc1/C=C/c1ccc(N(C)C)cc1 | > 80 µM (inactive) |
| CCn1c(C)cc(C(=O)CN2C(=O)c3ccccc3S2(=O)=O)c1C | 0.74 µM |
| CC(C)(C)c1nnc(N/N=C/c2ccccc2O)n(N)c1=O | 52.8 µM (inactive) |
| Cn1c(SC2=CS(=O)(=O)c3ccccc32)nc2ccccc21 | 3.54 µM |
| O=C(/C=C/c1cccc([N+](=O)[O-])c1)n1cnc2ccccc21 | 3.2 µM |
| O=C(c1cn(Cc2ccccc2)nc1-c1ccccc1)N1CCN(c2ccccn2)CC1 | > 80 µM (inactive) |
| COC(=O)c1c(NC(=O)c2ccc([N+](=O)[O-])o2)sc2c1CCN(C(C)C)C2 | 15 µM |
| CCn1ncc(C2=NOC(C(=O)NCc3ccc(Cl)cc3)C2)c1C (configuration not stated) | > 80 µM (inactive) |
